{"source": "patent US20230405052A1", "about": "“PHARMACEUTICAL COMPOSITION FOR PREVENTING OR TREATING FIBROSIS, COMPRISING ISOLATED MITOCHONDRIA” (Paean Biotechnology Inc., priority 2020, published 2023)", "type_in_all_cases": "cell-based", "key": {"[1]": {"tested_on": "human lung fibroblast CCD8-Lu cells", "assay": "Quantitative real-time PCR of fibrosis genes in TGF-β-treated CCD8-Lu fibroblasts", "settings": "qRT-PCR, 10 μg mitochondria or 1 μM nintedanib, 18 hours after 6 hours TGF-β", "description": "(§1) In order to analyze the anti-fibrotic activity of mitochondria, a cell-based analysis experiment was performed using a quantitative real-time polymerase chain reaction.\n(§2) CCD8-Lu cells and Wi-38 cells, which are human lung-derived fibroblasts, were cultured in DMEM medium containing 10% FBS, respectively. The cells were inoculated into a 6 well plate at about 2×10^5 cells/well and cultured for 24 hours, and then depletion conditions were performed in DMEM medium without FBS for about 24 hours. After 24 hours, the cells were treated with TGF-β at a concentration of 2.5 ng/mL, and then fibrosis of the cells was induced for 6 hours. After 6 hours, the cells were washed twice with PBS to completely remove the remaining TGF-β. Next, the mitochondria isolated from HEK293, UC-MSC and BM-MSC cells in Preparation Example 1 were mixed in DMEM medium, and the cells were treated with the mitochondria and then further cultured for 18 hours (FIG. 1). At this time, the negative control group was not treated with anything, the positive control group was treated with TGF-β alone at a concentration of 5 ng/mL, and the experimental groups were treated with 10 μg of mitochondria isolated from each cell, respectively. […]\n(§3) After 18 hours of mitochondria treatment, the culture solution was removed, and the cells were washed twice with a PBS buffer solution, and 0.5 mL of RNA extract (Trizol reagent, Thermo Fisher Scientific) was added directly and then stood at ambient temperature for 10 minutes. […] After drying, about 50 μl of purified RNAase-free distilled water was added, and the quantity and purity of the obtained RNA was measured using a spectrophotometer. […]\nChanges in the expression of the alpha actin smooth muscle (α-SMA) gene, a characteristic gene of myofibroblast, the CCN2 (or CTGF) gene, a characteristic gene of fibrosis, fibronectin, a characteristic gene of fibrosis, and the NOX-4 gene, a characteristic gene of fibrosis, were observed by quantitative real-time polymerase chain reaction. The GAPDH gene was quantified together to calibrate for differences in the expression."}, "[2]": {"tested_on": "human lung fibroblast Wi-38 cells", "assay": "Quantitative real-time PCR of fibrosis genes in TGF-β-treated Wi-38 fibroblasts", "settings": "qRT-PCR, 10 μg mitochondria or 1 μM nintedanib, 18 hours after 6 hours TGF-β", "description": "as §1\nas §2, with “1).” for “1). At this time, the negative control group was not treated with anything, the positive control group was treated with TGF-β alone at a concentration of 5 ng/mL, and the experimental groups were treated with 10 μg of mitochondria isolated from each cell, respectively.”\nas §3"}, "[3]": {"tested_on": "human lung fibroblast CCD8-Lu cells", "assay": "Western blotting of CTGF expression (FIG. 6)", "settings": "western blotting (FIG. 6), 5 μg mitochondria, 18 hours after 6 hours 2.5 ng/mL TGF-β", "description": "In order to observe whether the expression of CTGF, a key gene for fibrosis, is regulated by mesenchymal stem cell-derived mitochondria, a cell-based analysis experiment was performed using a Western analysis method.\nCCD8-Lu cells (FIG. 6A) and Wi-38 cells (FIG. 6B), which are human lung-derived fibroblasts, were cultured in DMEM medium containing 10% FBS. The cells were inoculated into a 6 well plate at about 2×10^5 cells/well and cultured for 24 hours, and then depletion conditions were performed in DMEM medium without FBS for about 24 hours.\nAfter 24 hours, the cells were treated with TGF-β at a concentration of 2.5 ng/mL, and then fibrosis of the cells was induced for 6 hours. After 6 hours, the cells were washed twice with PBS to completely remove TGF-β. Next, in the same manner as in Preparation Example 1, the mitochondria isolated from UC-MSC and HEK293 cells were mixed in DMEM medium, and the cells were treated with the mitochondria and then further cultured for 18 hours (FIG. 3). […]\nThe separated supernatant was obtained and transferred to a new microtube, and then protein was quantified using the BCA analysis method. […]"}, "[4]": {"tested_on": "human lung fibroblast CCD8-Lu cells", "assay": "Cell immunochemical staining of collagen 1A and fibronectin (FIG. 5)", "settings": "immunostaining (FIG. 5), 5 μg mitochondria or 1 mM pirfenidone, after 6 hours 2.5 ng/mL TGF-β", "description": "In order to analyze the anti-fibrotic activity of stem cell-derived mitochondria, a cell-based analysis experiment was performed using a […].\nCCD8-Lu cells, which are human lung-derived fibroblasts, were cultured in DMEM medium containing 10% FBS. Thereafter, the cells were inoculated into a 24 well plate at about 2×10^4 cells/well, cultured for 24 hours, and then reacted in DMEM medium without FBS for about 24 hours. After 24 hours, the cells were treated with TGF-β at a concentration of 2.5 ng/mL, and then fibrosis of the cells was induced for 6 hours. After 6 hours, the cells were washed twice with PBS to completely remove TGF-β. Next, the mitochondria isolated from umbilical cord blood mesenchymal stem cell UC-MSC, bone marrow mesenchymal stem cell BM-MSC, dedifferentiated stem cell iPSC and HEK293 cells obtained in Preparation Example 1 were mixed in DMEM medium, and the cells were treated with the mitochondria and then further cultured for 18 hours (FIG. 4). […]\nImmunohistochemical analysis for each sample was performed as follows. […] The nucleus was stained using DAPI (4,6-diamidino-2-phenylindole), and analysis of differences in fluorescence intensity was performed using a fluorescence microscope."}}, "data": [{"molecule": "COC(=O)c1ccc2c(c1)NC(=O)/C2=C(\\Nc1ccc(N(C)C(=O)CN2CCN(C)CC2)cc1)c1ccccc1", "note": "[nintedanib]", "values": [{"measurement": "expression of CTGF gene induced by TGF-β", "setting": "[1]", "value": "weakly inhibited or hardly inhibited"}, {"measurement": "expression of NOX-4 gene induced by TGF-β", "setting": "[1]", "value": "weakly inhibited or hardly inhibited"}, {"measurement": "expression of alpha actin smooth muscle (α-SMA) gene induced by TGF-β", "setting": "[1]", "value": "weakly inhibited or hardly inhibited"}, {"measurement": "expression of CTGF gene induced by TGF-β", "setting": "[2]", "value": "weakly inhibited or hardly inhibited"}, {"measurement": "expression of alpha actin smooth muscle (α-SMA) gene induced by TGF-β", "setting": "[2]", "value": "weakly inhibited or hardly inhibited"}, {"measurement": "expression of CTGF protein induced by TGF-β", "setting": "[3]", "value": "hardly inhibited"}]}, {"molecule": "Cc1ccc(=O)n(-c2ccccc2)c1", "note": "[pirfenidone]", "values": [{"measurement": "expression of collagen 1A induced by TGF-β (fluorescence intensity)", "setting": "[4]", "value": "weakly inhibited or hardly inhibited"}, {"measurement": "expression of fibronectin induced by TGF-β (fluorescence intensity)", "setting": "[4]", "value": "weakly inhibited or hardly inhibited"}]}]}
